# Laboratory results published in US20090018146A1, “Combination Therapy with Triterpenoid Compounds and Proteasome Inhibitors” (Research Development Corporation, priority 2005, published 2009).
# Residues, ends and D or L forms follow the SMILES beside them. *: point of attachment. Cbz = O=C(OCc1ccccc1)*; CH2F = FC*
# How the values were obtained:
# 20S activity = settings: general statement on proteasome inhibitors; cited from earlier work
# S. pombe cells = test: Detection of ubiquitinated proteins in S. pombe; assay type: cell-based, Schizosaccharomyces pombe; settings: wild type S. pombe, 20 μg/ml avicin G, after 90 minutes (1.5 hours), immunoblot
# Method: (§1) Standard yeast culture media and genetic methods were used (Alfa et al., 1993; Rose et al., 1990). S. pombe cultures were grown in either YEAU (0.5% yeast extract, 3% dextrose, 75 […]) or synthetic minimal medium (EMM) with appropriate supplements.
# S. pombe cultures were lysed with glass beads in PEM buffer (100 mM PIPES, 1 mM EGTA, 1 mM MgSO4, pH 6.9) containing 4 mM benzamide, 10 μM E64, 50 μM leupeptin, 1 μM pepstatin, 1 mM phenylmethanesulfonyl fluoride, and 2 μg/ml aprotinin essentially as described in (Yen et al., 2003). Equal amounts of protein were resolved by SDS-PAGE and subsequent immunoblotting using anti-ubiquitin mouse monoclonal antibody (Stressgen Biotechnologies).
# S. pombe = test: Effects of avicin G on the growth of S. pombe wild type and mutants; assay type: cell-based, Schizosaccharomyces pombe; settings: for sensitivity to avicin G relative to wild-type: 26° C.
# Method: FIGS. 10A and 10B: Effects of Avicin G on the Growth of S. pombe Mutants. Wild type, mts2-1 (mts2), mts3-1 (mts3), and nuc2-663 cells were spread on YEAU plates. Avicin G (25 jug) was then spotted onto the respective cell lawns and the plates were incubated at 26° C. for 5 days. The relative avicin G sensitivity of each strain, based on measurements of areas of avicin G-induced growth inhibition, was then determined, with wild-type cells being normalized to a value of 1 (FIG. 10A).
# as §1
# XIAP = test: Western blot of XIAP protein in Jurkat cells; assay type: cell-based, human
# Method: (§2) Jurkat T cells (2 μg/ml=1 μM), U-937 (4 μg/ml), MJ (5 μg/ml), and HH cells (2.5 μg/ml) were treated for 0-24 hours with the indicated concentrations of avicin D. PBLs from the patients or normal blood were treated with 5 μg/ml of avicin D for 24 hours.
# (§3) At the end of treatments, cells were harvested, washed with sterile ice-cold PBS and cytoplasmic extracts (CE) were prepared by lysing the cells in CE buffer containing 10 mM Hepes-Cl pH 7.5, 10 mM KCl, 0.1 mM EDTA, 0.1 mM EGTA, 0.3% NP40, and a protease inhibitor cocktail (Sigma). After centrifugation and separating the supernatant (CE proteins), the pellet was resuspended in a buffer containing 20 mM Hepes-Cl, 400 mM NaCl, 1 mM EDTA, 1 mM EGTA, and protease inhibitor cocktail (Sigma). The nuclear protein extraction proceeded for 30 min. on ice followed by centrifugation at 14,000 rpm for 5 min at 4° C. The clear supernatant containing nuclear proteins (NE) was collected, glycerol (10%) was added, and proteins stored at −80° C. until use.
# (§4) SDS-PAGE and immunoblot procedures were essentially performed as described (Sambrook, 1989). Briefly, cytoplasmic and nuclear proteins were resolved on SDS-PAGE, blotted on PVDF membranes (BioRad) and probed with various antibodies followed with anti-rabbit, anti-mouse antibody conjugated to horseradish peroxidase (HRP) from BioRad or HRP conjugated anti-goat antibody from Santa Cruz Biotechnology, corresponding to the primary antibody. Protein bands were detected using the ECL chemiluminescence kit from Amersham as per the manufacturer's protocol.
# (§5) Quantitation of proteins (western) and transcripts (RT-PCR) was performed using the NIH 1.61 image software.
# his-ub-Hsp70 = test: In vivo ubiquitination of Hsp70 in his-ub transfected Jurkat cells; assay type: cell-based, human; settings: lactacystin 10 μM 30 minutes pretreatment, then avicin D 4 hours
# Method: Jurkat T-cells were transfected with a plasmid pDG268 that expresses a fusion protein of histidine-tagged human ubiquitin and enhanced GFP. Transfection was performed using μm ax a Biosystems kit and their protocol. After 24 hours of transfection, cells were harvested, resuspended at a density of 10^6 cells/ml before treatment with lactacystin or avicin D.
# Jurkat T cells transfected with the his-ub plasmid construct were treated with lactacystin (10 μM) or with avicin D (1 μM) for 4 hours. Cells were harvested and CE prepared as described above. […] The affinity purified histidine-tagged proteins were separated on SDS-PAGE and analyzed on western blots for ub-Hsp70 proteins.
# Hsp70 = test: Western blot of Hsp70 protein in avicin D treated Jurkat cells; assay type: cell-based, human
# Method: as §2, §3, §4, §5
# Hsp90 = test: Western blot of Hsp90 protein in avicin D treated Jurkat cells; assay type: cell-based, human; settings: lactacystin 10 μM 30 minutes, then avicin D 4 hours
# Method: as §2, §3
# SDS-PAGE and immunoblot procedures were essentially performed as described (Sambrook, 1989). […] Protein bands were detected using the ECL chemiluminescence kit from Amersham as per the manufacturer's protocol.
# as §5
smiles,measurement,setting,value
CC(C)C[C@H](NC(=O)[C@H](Cc1ccccc1)NC(=O)c1cnccn1)B(O)O [PS341],suppression of 20S activity,20S activity,suppress 20S activity completely
C=C[C@](C)(O)CC/C=C(\C)C(=O)O[C@H]1[C@H](O)[C@@H](O)[C@H](O[C@@](C)(C=C)CC/C=C(\CO)C(=O)O[C@H]2C[C@]3(C(=O)O[C@@H]4O[C@H](CO)[C@@H](O)[C@H](O)[C@H]4O[C@@H]4O[C@@H](C)[C@H](O[C@@H]5O[C@@H](CO)[C@H](O)[C@H]5O)[C@@H](O[C@@H]5O[C@H](CO)[C@@H](O)[C@H](O)[C@H]5O)[C@H]4O)[C@H](O)C[C@]4(C)C(=CC[C@@H]5[C@@]6(C)CC[C@H](O[C@@H]7O[C@H](CO[C@@H]8O[C@H](C)[C@H](O)[C@H](O)[C@H]8O[C@@H]8OC[C@@H](O)[C@H](O)[C@H]8O)[C@@H](O)[C@H](O)[C@H]7NC(C)=O)C(C)(C)[C@@H]6CC[C@]54C)[C@@H]3CC2(C)C)O[C@@H]1C [avicin G],levels of ubiquitinated proteins,S. pombe cells,increase in the levels of ubiquitinated proteins
same,sensitivity to avicin G relative to wild-type,"S. pombe; mts2-1 26S proteasome mutant, 25 μg spotted, 5 days",only slightly increased
same,sensitivity to avicin G relative to wild-type,"S. pombe; mts3-1 26S proteasome mutant, 25 μg spotted, 5 days",only slightly increased
same,sensitivity to avicin G relative to wild-type,S. pombe; nuc2-663 APC mutant,markedly resistant
same,growth on YEAU containing 16 μg/ml avicin G,"S. pombe; nuc2-663 cells, 5 days at 26° C.",grew
"CC(=O)N[C@@H](CSC(=O)[C@]1([C@@H](O)C(C)C)NC(=O)[C@H](C)[C@@H]1O)C(=O)O [lactacystin, reference compound]",effect of lactacystin on the avicin induced XIAP decrease,XIAP; lactacystin 30 minutes prior to avicin D 4 hours,blocked
same,effect of lactacystin on the avicin-induced decrease of his-ub-Hsp70,his-ub-Hsp70,sensitive to lactacystin
same,effect of lactacystin pretreatment on the avicin-induced decrease in Hsp70 protein,"Hsp70; lactacystin 10 μM 30 minutes, then avicin D 4 hours",totally reversed
same,effect of lactacystin pretreatment on the avicin-induced decrease in Hsp90 protein,Hsp90,totally reversed
"COC(=O)C[C@H](NC(=O)[C@H](C)NC(=O)[C@@H](NC(=O)OCc1ccccc1)C(C)C)C(=O)CF [zVAD-fmk, reference compound] (Cbz-Val-Ala-Asp(OMe)-CH2F)",block of avicin-induced XIAP degradation,XIAP; zVAD-FMK 50 μM prior to avicin D 4 hours,−22%
same,effect of caspase inhibition on the avicin-induced degradation of Hsp70,Hsp70; zVAD-FMK 50 μM 30 minutes prior to avicin D 1 μM 4 hours,no significant effect
